Data: patent publication US5242938A, “Derivatives of virginiamycin M1” (Merck & Co., Inc., priority 1992, dated 1993)
≈ marks a conversion by molar mass, not a printed value. Like-named read-outs stand apart in the source and are kept apart here.

What was measured:
[1] = biological target: T1, CCK-B (guinea pig cortex) (Cavia porcellus, UniProt H0VZC5); experiment: [125I]BHCCK-8 radioligand binding, guinea pig cortical preparation; settings: read-out: CCK binding inhibition - IC50, [125I]BHCCK
T1 construct: guinea pig cortical preparations; from tissue; host or cells: guinea pig brain cortex membranes
T1 sequence (H0VZC5 1-426): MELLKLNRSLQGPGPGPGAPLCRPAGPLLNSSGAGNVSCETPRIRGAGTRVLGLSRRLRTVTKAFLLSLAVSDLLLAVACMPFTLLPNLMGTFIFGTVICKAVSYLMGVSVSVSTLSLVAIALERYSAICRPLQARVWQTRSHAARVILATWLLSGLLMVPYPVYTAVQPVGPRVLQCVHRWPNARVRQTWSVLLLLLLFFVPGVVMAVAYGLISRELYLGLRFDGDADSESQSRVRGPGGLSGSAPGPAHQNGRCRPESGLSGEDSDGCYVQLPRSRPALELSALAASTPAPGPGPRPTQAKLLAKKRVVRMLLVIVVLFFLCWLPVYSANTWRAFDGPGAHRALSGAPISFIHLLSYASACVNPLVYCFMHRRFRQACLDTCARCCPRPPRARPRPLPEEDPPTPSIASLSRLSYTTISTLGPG
Experimental: (§1) The resulting supernatant was re-spun at 20,000×g for 20 minutes. […] Incubations were for 40 minutes at 4° C. and were terminated by filtration and washing with ice cold 100 mM saline. […] Incubations were for 30 minutes at room temperature and were terminated by filtration over GF/C filters and washing with 100 mM NaCl.

[2] = biological target: T1, CCK-B (guinea pig cortex); experiment: [3H]L-365,260 CCK-B selective antagonist ligand binding, brain membranes; settings: for IC50: read-out: CCK binding inhibition - IC50, [3H]L-365,260
Experimental: as §1

CCK-A (rat pancreas) [3] = biological target: T2, CCK-A (rat pancreas) (Rattus norvegicus, UniProt P30551); experiment: [125I]BHCCK-8 radioligand binding, rat pancreatic preparation; settings: read-out: CCK binding inhibition - IC50, [125I]BHCCK
T2 construct: from tissue; host or cells: rat pancreas
T2 sequence (P30551 1-444): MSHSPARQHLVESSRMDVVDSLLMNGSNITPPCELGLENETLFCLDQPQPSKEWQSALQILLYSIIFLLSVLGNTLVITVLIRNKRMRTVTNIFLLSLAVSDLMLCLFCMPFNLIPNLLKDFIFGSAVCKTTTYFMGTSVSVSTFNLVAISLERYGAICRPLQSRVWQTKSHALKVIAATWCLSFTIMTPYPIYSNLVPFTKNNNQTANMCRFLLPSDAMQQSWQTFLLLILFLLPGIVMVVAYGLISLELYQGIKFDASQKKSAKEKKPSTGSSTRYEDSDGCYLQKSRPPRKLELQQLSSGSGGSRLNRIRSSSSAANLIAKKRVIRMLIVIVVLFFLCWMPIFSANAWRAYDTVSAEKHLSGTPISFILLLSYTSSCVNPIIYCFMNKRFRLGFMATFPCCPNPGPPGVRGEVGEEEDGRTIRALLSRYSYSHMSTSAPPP
Experimental: as §1

CCK-A (rat pancreas) [4] = biological target: T2, CCK-A (rat pancreas); experiment: [3H]L-364,718 CCK-A selective antagonist ligand binding, pancreas; settings: read-out: CCK binding inhibition - IC50, [3H]L-364,718
Experimental: as §1

Bacillus sp. (Mb 633) = experiment: Agar diffusion disc assay, Baci 633; format: cell-based; settings: @ 20 g/disc
Experimental: (§2) Cultures employed in evaluating antimicrobial activity included plant pathogens, human and animal opportunistic pathogens and selected laboratory strains having specific-antibiotic sensitivities or chromosomal or R-plasmid-mediated resistances. […] The agar diffusion MIC's were determined using the method described by Barry in Anitbiotics in Laboratory Medicine, 2nd Ed., Ed. V. Lorian, pp. 1-63, William & Wilkins, Baltimore, 1986. Each test compound was dissolved in methanol to a concentration of 1 mg/ml. Serial dilutions of these compounds were also made to determine an agar diffusion MIC. 20 μl of each dilution was pipetted on to 6 mm paper discs, air dried and placed onto the surface of an agar plate seeded with the appropriate bacteria (~10^6 cfu). Seeded agar plates were incubated overnight (~18 hours) at 25° C. Zone sizes were measured to the nearest mm. Each compound was tested in triplicate and the results shown represent the mean.

[5] = system: Staphylococcus aureus (Mb 108, ATCC 6538P); experiment: Agar diffusion disc assay, Sta 108; format: cell-based
Experimental: as §2

[6] = system: Bacillus subtilis (Mb 964, ATCC 6633); experiment: Agar diffusion disc assay, Subt 964; format: cell-based
Experimental: as §2

[7] = system: Micrococcus luteus (Mb 1101, ATCC 9341); experiment: Agar diffusion disc assay, Micr 1101; format: cell-based; settings: for MIC: read-out: Agar Diffusion MIC versus Micrococcus luteus
Experimental: as §2

[8] = system: Staphylococcus aureus (Mb 2983); experiment: Agar diffusion disc assay, Sta 2983; format: cell-based
Experimental: as §2

[9] = system: Corynebacterium pseudodiphtheriticum (Mb 261, ATCC 9742); experiment: Agar diffusion disc assay, Cory 261; format: cell-based; design: Inhibition zone diameter, Cory 261: dose or concentration left out as unconfirmed
Experimental: as §2

[10] = system: Streptococcus faecium (Mb 2820); experiment: Agar diffusion disc assay, Str 2820; format: cell-based; design: Inhibition zone diameter, Str 2820: dose or concentration left out as unconfirmed
Experimental: as §2

[11] = system: Streptococcus agalactiae (Mb 2875); experiment: Agar diffusion disc assay, Str 2875; format: cell-based
Experimental: as §2

[12] = system: Salmonella gallinarum (Mb 1287); experiment: Agar diffusion disc assay, Salm 1287; format: cell-based
Experimental: as §2

[13] = system: Escherichia coli (Mb 1418); experiment: Agar diffusion disc assay, Coli 1418; format: cell-based; settings: @ 20 g/disc
Experimental: as §2

[14] = system: Pseudomonas stutzeri (Mb 1231, ATCC 11607); experiment: Agar diffusion disc assay, Pseu 1231; format: cell-based; settings: @ 20 g/disc
Experimental: as §2

[15] = system: En terobacter aergenes (Mb 835); experiment: Agar diffusion disc assay, Ent 835; format: cell-based
Experimental: as §2

Structure (SMILES): CC1=C\[C@@H](O)CC(O)Cc2nc(co2)C(=O)N2CCC=C2C(=O)O[C@H](C(C)C)[C@H](C)/C=C/C(=O)NC\C=C\1 (single isomer, unassigned) [Example 14A]
- IC50 [1]: 2.1 µM
- A.R. = agonist ratio = IC50([3H]L365,260)/IC50([125I]CCK) [2]: 0.1
- IC50 [2]: 0.14 µM
- IC50 (CCK-A (rat pancreas) [3]): > 3 µM
- IC50 (CCK-A (rat pancreas) [4]): > 3 µM
- Inhibition zone diameter, Baci 633 (Bacillus sp. (Mb 633)): 9 mm
- zone of inhibition at 20 µg/disc ([5]; Staphylococcus aureus, ATCC6538P, 18 h, read-out: Inhibition zone diameter, Sta 108, @ 20 g/disc): 27 mm
- zone of inhibition at 20 µg/disc ([6]; Bacillus subtilis, ATCC6633, 18 h, read-out: Inhibition zone diameter, Subt 964): 0 mm
- zone of inhibition at 20 µg/disc ([7]; Micrococcus luteus, ATCC9341, 18 h, read-out: Inhibition zone diameter, Micr 1101, @ 20 g/disc): 35 mm
- zone of inhibition at 1.25 µg/disc ([7]; Micrococcus luteus, ATCC9341, 18 h, read-out: Mean of triplicate zone size versus Micrococcus luteus, 1.25 μg/disc, 25° C., ~18 hours): 25 mm
- zone of inhibition at 2.5 µg/disc ([7]; Micrococcus luteus, ATCC9341, 18 h, read-out: Mean of triplicate zone size versus Micrococcus luteus, 2.50 μg/disc, 25° C., ~18 hours): 27 mm
- zone of inhibition at 5 µg/disc ([7]; Micrococcus luteus, ATCC9341, 18 h, read-out: Mean of triplicate zone size versus Micrococcus luteus, 5.00 μg/disc, 25° C., ~18 hours): 29 mm
- zone of inhibition at 20 µg/disc ([7]; Micrococcus luteus, ATCC9341, 18 h, read-out: Mean of triplicate zone size versus Micrococcus luteus, 20.0 μg/disc, 25° C., ~18 hours): 33 mm
- MIC [7]: 0.08 µM (≈ 0.0422 µg/mL)
- zone of inhibition at 20 µg/disc ([8]; Staphylococcus aureus, 18 h, read-out: Inhibition zone diameter, Sta 2983, @ 20 g/disc): 22 mm
- zone of inhibition at 20 µg/disc ([9]; Corynebacterium pseudodiphtheriticum, ATCC9742, 18 h, read-out: Inhibition zone diameter, Cory 261, @ 20 g/disc): 30 mm
- zone of inhibition at 20 µg/disc ([10]; Enterococcus faecium, 18 h, read-out: Inhibition zone diameter, Str 2820, @ 20 g/disc): 16 mm
- zone of inhibition at 20 µg/disc ([11]; Streptococcus agalactiae, 18 h, read-out: Inhibition zone diameter, Str 2875, @ 20 g/disc): 30 mm
- zone of inhibition at 20 µg/disc ([12]; Salmonella enterica, GALLINARUM, 18 h, read-out: Inhibition zone diameter, Salm 1287): 0 mm
- Inhibition zone diameter, Coli 1418 [13]: 8 mm
- Inhibition zone diameter, Pseu 1231 [14]: 15 mm
- zone of inhibition at 20 µg/disc ([15]; 18 h, read-out: Inhibition zone diameter, Ent 835): 0 mm

Structure (SMILES): CC1=C\[C@@H](O)CC(O)Cc2nc(co2)C(=O)N2CCC=C2C(=O)O[C@H](C(C)C)[C@H](C)/C=C/C(=O)NC\C=C\1 (single isomer, unassigned) [Example 14B]
- IC50 [1]: 0.4 µM
- A.R. = agonist ratio = IC50([3H]L365,260)/IC50([125I]CCK) [2]: 1
- IC50 [2]: 0.53 µM
- IC50 (CCK-A (rat pancreas) [3]): > 3 µM
- IC50 (CCK-A (rat pancreas) [4]): > 3 µM
- Inhibition zone diameter, Baci 633 (Bacillus sp. (Mb 633)): 0 mm
- Inhibition zone diameter, Sta 108 ([5]; @ 20 g/disc): 22 mm
- Inhibition zone diameter, Subt 964 ([6]; @ 20 g/disc): 0 mm
- Mean of triplicate zone size versus Micrococcus luteus ([7]; 1.25 μg/disc, 25° C., ~18 hours): 22 mm
- Mean of triplicate zone size versus Micrococcus luteus ([7]; 2.50 μg/disc, 25° C., ~18 hours): 25 mm
- Mean of triplicate zone size versus Micrococcus luteus ([7]; 5.00 μg/disc, 25° C., ~18 hours): 28 mm
- Mean of triplicate zone size versus Micrococcus luteus ([7]; 10.0 μg/disc, 25° C., ~18 hours): 30 mm
- Mean of triplicate zone size versus Micrococcus luteus ([7]; 20.0 μg/disc, 25° C., ~18 hours): 32 mm
- Inhibition zone diameter, Micr 1101 ([7]; @ 20 µg/disc): 35 mm
- MIC [7]: 0.24 µM (≈ 0.127 µg/mL)
- Inhibition zone diameter, Sta 2983 ([8]; @ 20 g/disc): 11 mm
- Inhibition zone diameter, Cory 261 [9]: 26 mm
- Inhibition zone diameter, Str 2820 [10]: 15 mm
- Inhibition zone diameter, Str 2875 ([11]; @ 20 µg/disc): 18 mm
- Inhibition zone diameter, Salm 1287 ([12]; @ 20 g/disc): 0 mm
- Inhibition zone diameter, Coli 1418 [13]: 0 mm
- Inhibition zone diameter, Pseu 1231 [14]: 0 mm
- Inhibition zone diameter, Ent 835 ([15]; @ 20 g/disc): 0 mm
